Assay results published in ChEMBL document CHEMBL4043085, “Anisucoumaramide, a Bioactive Coumarin from Clausena anisum-olens” (J Nat Prod, 2017).

Tests used:
[1] = target: T1, Amine oxidase [flavin-containing] A (Homo sapiens, UniProt P21397); test: Inhibition of human recombinant MAOA assessed as reduction in H2O2 production from p-tyramine at 100 uM incubated for 15 mins by Amplex red reagent based fluorimetric method; conditions: 0.25 h
T1 sequence (P21397 whole entry): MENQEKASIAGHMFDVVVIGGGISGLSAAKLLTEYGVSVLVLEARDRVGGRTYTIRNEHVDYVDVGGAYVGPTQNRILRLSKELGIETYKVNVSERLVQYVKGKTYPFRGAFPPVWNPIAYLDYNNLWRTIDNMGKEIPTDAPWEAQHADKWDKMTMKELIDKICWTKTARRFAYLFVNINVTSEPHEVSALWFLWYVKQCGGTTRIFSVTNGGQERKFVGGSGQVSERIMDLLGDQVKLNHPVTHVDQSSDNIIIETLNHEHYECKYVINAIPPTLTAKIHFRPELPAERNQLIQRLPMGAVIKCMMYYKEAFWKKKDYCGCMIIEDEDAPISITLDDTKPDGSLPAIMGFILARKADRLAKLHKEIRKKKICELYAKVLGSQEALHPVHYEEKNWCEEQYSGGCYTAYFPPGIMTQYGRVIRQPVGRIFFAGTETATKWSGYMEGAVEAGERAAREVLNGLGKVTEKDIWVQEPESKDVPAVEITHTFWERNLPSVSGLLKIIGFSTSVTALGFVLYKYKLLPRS

[2] = target: T2, Amine oxidase [flavin-containing] B (Homo sapiens, UniProt P27338); test: Inhibition of human recombinant MAOB assessed as reduction in H2O2 production from p-tyramine incubated for 15 mins by Amplex red reagent based fluorimetric method
T2 sequence (P27338 whole entry): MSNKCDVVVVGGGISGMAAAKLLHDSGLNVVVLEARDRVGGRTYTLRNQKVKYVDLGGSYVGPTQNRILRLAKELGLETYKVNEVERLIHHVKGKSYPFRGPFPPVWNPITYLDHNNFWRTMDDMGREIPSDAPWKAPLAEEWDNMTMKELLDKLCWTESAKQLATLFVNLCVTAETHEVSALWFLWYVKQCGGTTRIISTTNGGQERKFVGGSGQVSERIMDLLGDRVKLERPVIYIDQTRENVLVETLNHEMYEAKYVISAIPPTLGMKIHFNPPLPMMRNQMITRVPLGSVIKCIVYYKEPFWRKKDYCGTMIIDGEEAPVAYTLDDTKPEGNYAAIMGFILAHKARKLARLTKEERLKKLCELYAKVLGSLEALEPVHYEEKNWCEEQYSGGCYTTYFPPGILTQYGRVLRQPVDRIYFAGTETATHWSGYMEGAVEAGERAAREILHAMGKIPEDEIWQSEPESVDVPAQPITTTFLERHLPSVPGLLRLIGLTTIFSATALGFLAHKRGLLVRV

[3] = species: Homo sapiens; test: Selectivity index, ratio of IC50 for human recombinant MAOA to IC50 for human recombinant MAOB

inhibition (INH) [1]: Not Active
IC50 [2]: 0.144 µM
Ratio IC50 [3]: > 696
SMILES: COc1c(OC/C=C(\C)C[C@@H]2C=C(CCC(N)=O)C(=O)O2)ccc2ccc(=O)oc12
